Reference: patent US20140024839A1, “FULLERENE DERIVATIVE, AND METHOD OF PREPARING THE SAME” (RICOH COMPANY, LTD., priority 2012, published 2014)

Experiment: Solubility in o-dichlorobenzene (saturated solution, HPLC with standard curves)
Type: physicochemical
Conditions: saturated o-dichlorobenzene solution at 25° C., filtered 0.45 μm, HPLC 254 nm
Experimental: Solubilities of the fullerene derivatives having the formulae (1a) to (5a) of the present invention in Examples 1 to 5 and the fullero pyrrolidine in Application Examples 1 to 5 in o-dichlorobenzene were evaluated by the following method. A 0.1 mM o-dichlorobenzene solution and a 1.0 mM o-dichlorobenzene solution of each of the fullerene derivatives and the fullero pyrrolidine were prepared, and diluted fivefold with THF for HPLC. Ten (10) μL of the diluted solution was analyzed by a high-speed liquid chromatograph (LC-2010HT from Shimadzu Corp.; developing solvent: THF/ion-exchanged water=60/40; analysis time: 60 min; and detection wavelength: 254 nm) to prepare a chromatogram. Standard curves of the known concentrations (0.1 mM and 1.0 mM) were obtained therefrom. Next, a saturated o-dichlorobenzene solution of each of the fullerene derivatives and the fullero pyrrolidine were prepared at 25° C. After the saturated solution was filtered with a 0.45 μm filter, it was diluted hundredfold with THF for HPLC. Ten (10) μL of the diluted solution was analyzed by the same method mentioned above to prepare a chromatogram. A weight of the fullerene derivative dissolved in 1 mL of o-dichlorobenzene was determined as solubility using a peak area value of the chromatogram from the saturated solution and the standard curves.

CC(C)(C)OC(=O)Oc1ccc(N2CC34C5=c6c7c8c9c%10c%11c%12c%13c%14c%15c%16c%17c(c6c(c%16%13)c%117)C3(C2C(C)(C)C)C2C%173CC26c2c7c%11c%13c%16c2c2c%17c%18c%19c%20c%21c%22c%23c(c-%13c%21c%18%16)C(C%14C%23C%12C%10C%22C%20C9C9C8C5C(C%17C%199)C4C26)C%11C%15C73)cc1 (stereo not drawn) [formula (3a)]
Weight of the fullerene derivative dissolved in 1 mL of o-dichlorobenzene: 107 mg

CCCCCCCCCC1N(c2ccc(OC(=O)OC(C)(C)C)cc2)CC23C4=c5c6c7c8c9c%10c%11c%12c%13c%14c%15c%16c(c5c(c%15%12)c%106)C12C1C%162CC15c1c6c%10c%12c%15c%16c%17c%18c%19c%20c%21c%22c%23c%24c(c1c%12c(c%21%24)c%19%15)C5C3C%23C4C7C%22C8C%20C%18C9C%11C%17C%13C%16C%10C%14C62 (stereo not drawn) [formula (4a)]
Weight of the fullerene derivative dissolved in 1 mL of o-dichlorobenzene: 159 mg

CCCCCCCCCCCCC1N(c2ccc(OC(=O)OC(C)(C)C)cc2)CC23C4=c5c6c7c8c9c%10c%11c%12c%13c%14c%15c%16c(c5c(c%15%12)c%106)C12C1C%162CC15c1c6c%10c%12c%15c%16c%17c%18c%19c%20c%21c%22c%23c%24c(c1c%12c(c%21%24)c%19%15)C5C3C%23C4C7C%22C8C%20C%18C9C%11C%17C%13C%16C%10C%14C62 (stereo not drawn) [formula (5a)]
Weight of the fullerene derivative dissolved in 1 mL of o-dichlorobenzene: 280 mg
